Measurements: ChEMBL document CHEMBL5113453, “Design, synthesis, and biological evaluation of a new series of pyrazole derivatives: Discovery of potent and selective JNK3 kinase inhibitors” (Bioorg Med Chem, 2022)

Assays:
SK-MEL-5 = assay: Antiproliferative activity against human SK-MEL-5 cells measured after 48 hrs by SRB assay; assay type: functional, cell-based
HOP-92 = assay: Antiproliferative activity against human HOP-92 cells measured after 48 hrs by SRB assay; assay type: functional, cell-based
CCRF-CEM = assay: Antiproliferative activity against human CCRF-CEM cells measured after 48 hrs by SRB assay; assay type: functional, cell-based
COLO 205 = assay: Antiproliferative activity against human COLO 205 cells measured after 48 hrs by SRB assay; assay type: functional, cell-based
TK-10 = assay: Antiproliferative activity against human TK-10 cells measured after 48 hrs by SRB assay; assay type: functional, cell-based
HL-60(TB) = assay: Antiproliferative activity against human HL-60(TB) cells measured after 48 hrs by SRB assay; assay type: functional, cell-based
SF-295 = assay: Antiproliferative activity against human SF-295 cells measured after 48 hrs by SRB assay; assay type: functional, cell-based
CAKI-1 = assay: Antiproliferative activity against human CAKI-1 cells measured after 48 hrs by SRB assay; assay type: functional, cell-based
SF-268 = assay: Antiproliferative activity against human SF-268 cells measured after 48 hrs by SRB assay; assay type: functional, cell-based
OVCAR-4 = assay: Antiproliferative activity against human OVCAR-4 cells measured after 48 hrs by SRB assay; assay type: functional, cell-based
A498 = assay: Antiproliferative activity against human A498 cells measured after 48 hrs by SRB assay; assay type: functional, cell-based
MDA-MB-435 = assay: Antiproliferative activity against human MDA-MB-435 cells measured after 48 hrs by SRB assay; assay type: functional, cell-based
NCI/ADR-RES = assay: Antiproliferative activity against human NCI-ADR-RES cells measured after 48 hrs by SRB assay; assay type: functional, cell-based
MOLT-4 = assay: Antiproliferative activity against human MOLT-4 cells measured after 48 hrs by SRB assay; assay type: functional, cell-based
SK-OV-3 = assay: Antiproliferative activity against human SK-OV-3 cells measured after 48 hrs by SRB assay; assay type: functional, cell-based
SK-MEL-2 = assay: Antiproliferative activity against human SK-MEL-2 cells measured after 48 hrs by SRB assay; assay type: functional, cell-based
NCI-H460 = assay: Antiproliferative activity against human NCI-H460 cells measured after 48 hrs by SRB assay; assay type: functional, cell-based
K562 = assay: Antiproliferative activity against human K562 cells measured after 48 hrs by SRB assay; assay type: functional, cell-based
OVCAR-5 = assay: Antiproliferative activity against human OVCAR-5 cells measured after 48 hrs by SRB assay; assay type: functional, cell-based
KM12 = assay: Antiproliferative activity against human KM12 cells measured after 48 hrs by SRB assay; assay type: functional, cell-based
RXF 393 = assay: Antiproliferative activity against human RXF 393 cells measured after 48 hrs by SRB assay; assay type: functional, cell-based
SK-MEL-28 = assay: Antiproliferative activity against human SK-MEL-28 cells measured after 48 hrs by SRB assay; assay type: functional, cell-based
NCI-H322M = assay: Antiproliferative activity against human NCI-H322M cells measured after 48 hrs by SRB assay; assay type: functional, cell-based
SNB-75 = assay: Antiproliferative activity against human SNB-75 cells measured after 48 hrs by SRB assay; assay type: functional, cell-based
[1] = biological target: T1, Mitogen-activated protein kinase 10 (Homo sapiens, UniProt P53779); assay: Inhibition of JNK3 (unknown origin) at 1 uM relative to control
T1 sequence (P53779 whole entry): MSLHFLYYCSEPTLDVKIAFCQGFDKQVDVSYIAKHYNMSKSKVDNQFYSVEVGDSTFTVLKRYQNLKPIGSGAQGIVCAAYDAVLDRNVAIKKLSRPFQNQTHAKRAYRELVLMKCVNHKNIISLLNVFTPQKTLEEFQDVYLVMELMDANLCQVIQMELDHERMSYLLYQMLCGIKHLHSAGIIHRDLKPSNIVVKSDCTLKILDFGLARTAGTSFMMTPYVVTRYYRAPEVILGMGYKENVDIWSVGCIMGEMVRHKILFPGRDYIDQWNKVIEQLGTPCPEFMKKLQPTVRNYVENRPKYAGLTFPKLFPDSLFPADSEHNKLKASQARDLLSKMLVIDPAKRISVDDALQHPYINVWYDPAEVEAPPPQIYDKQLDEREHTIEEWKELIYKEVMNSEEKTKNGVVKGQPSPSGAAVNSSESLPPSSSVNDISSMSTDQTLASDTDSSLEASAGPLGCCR

PC-3 = assay: Antiproliferative activity against human PC-3 cells measured after 48 hrs by SRB assay; assay type: functional, cell-based
MDA-MB-468 = assay: Antiproliferative activity against human MDA-MB-468 cells measured after 48 hrs by SRB assay; assay type: functional, cell-based
HCT-116 = assay: Antiproliferative activity against human HCT-116 cells measured after 48 hrs by SRB assay; assay type: functional, cell-based
UACC-257 = assay: Antiproliferative activity against human UACC-257 cells measured after 48 hrs by SRB assay; assay type: functional, cell-based
OVCAR-3 = assay: Antiproliferative activity against human OVCAR-3 cells measured after 48 hrs by SRB assay; assay type: functional, cell-based
M14 = assay: Antiproliferative activity against human M14 cells measured after 48 hrs by SRB assay; assay type: functional, cell-based
UACC-62 = assay: Antiproliferative activity against human UACC-62 cells measured after 48 hrs by SRB assay; assay type: functional, cell-based
WI-38 = assay: Antiproliferative activity against human WI-38 cells measured by MTT assay; assay type: functional, cell-based
[2] = biological target: T1, Mitogen-activated protein kinase 10; assay: Inhibition of JNK3 (unknown origin)
SW-620 = assay: Antiproliferative activity against human SW-620 cells measured after 48 hrs by SRB assay; assay type: functional, cell-based
RPMI-8226 = assay: Antiproliferative activity against human RPMI-8226 cells measured after 48 hrs by SRB assay; assay type: functional, cell-based
MDA-MB-231 = assay: Antiproliferative activity against human MDA-MB-231 cells measured after 48 hrs by SRB assay; assay type: functional, cell-based
ACHN = assay: Antiproliferative activity against human ACHN cells measured after 48 hrs by SRB assay; assay type: functional, cell-based
A549 = assay: Antiproliferative activity against human A549 cells measured after 48 hrs by SRB assay; assay type: functional, cell-based

O=C(NCCCNc1cc(-c2cn(-c3ccccc3)nc2-c2cccc(O)c2)ccn1)Nc1cccc(C(F)(F)F)c1
IC50 (SK-MEL-5; SK-MEL-5, 48 h): 3.25 µM | TGI (SK-MEL-5; SK-MEL-5, time 48 hrs): 7.17 µM | IC50 (HOP-92; HOP-92, 48 h): 1.25 µM | TGI (HOP-92; HOP-92, time 48 hrs): 6.01 µM | IC50 (CCRF-CEM; 48 h): 1.71 µM | TGI (CCRF-CEM; time 48 hrs): > 33.3 µM | IC50 (COLO 205; COLO 205, 48 h): 2.97 µM | TGI (COLO 205; COLO 205, time 48 hrs): 8.72 µM | IC50 (TK-10; TK-10, 48 h): 5.75 µM | TGI (TK-10; TK-10, time 48 hrs): 13.2 µM | IC50 (HL-60(TB); HL-60, 48 h): 3.42 µM | TGI (HL-60(TB); HL-60, time 48 hrs): 14.5 µM | IC50 (SF-295; SF-295, 48 h): 1.76 µM | TGI (SF-295; SF-295, time 48 hrs): 6.42 µM | IC50 (CAKI-1; CAKI-1, 48 h): 1.9 µM | TGI (CAKI-1; CAKI-1, time 48 hrs): 12.3 µM | IC50 (SF-268; SF-268, 48 h): 3.26 µM | TGI (SF-268; SF-268, time 48 hrs): 9.69 µM | IC50 (OVCAR-4; OVCAR-4, 48 h): 2.13 µM | TGI (OVCAR-4; OVCAR-4, time 48 hrs): 7.75 µM | IC50 (A498; A498, 48 h): 3.17 µM | TGI (A498; A498, time 48 hrs): 7.18 µM | IC50 (MDA-MB-435; MDA-MB-435, 48 h): 3.41 µM | TGI (MDA-MB-435; MDA-MB-435, time 48 hrs): 7.57 µM | IC50 (NCI/ADR-RES; 48 h): 4.9 µM | TGI (NCI/ADR-RES; time 48 hrs): 12.8 µM | IC50 (MOLT-4; MOLT-4, 48 h): 1.67 µM | TGI (MOLT-4; MOLT-4, time 48 hrs): 15 µM | IC50 (SK-OV-3; SK-OV-3, 48 h): 4.49 µM | TGI (SK-OV-3; SK-OV-3, time 48 hrs): 10.1 µM | IC50 (SK-MEL-2; SK-MEL-2, 48 h): 5.29 µM | TGI (SK-MEL-2; SK-MEL-2, time 48 hrs): 11.7 µM | IC50 (NCI-H460; NCI-H460, 48 h): 3.48 µM | TGI (NCI-H460; NCI-H460, time 48 hrs): 8.89 µM | IC50 (K562; K562, 48 h): 1.26 µM | TGI (K562; K562, time 48 hrs): > 14.5 µM | IC50 (OVCAR-5; OVCAR-5, 48 h): 3.96 µM | TGI (OVCAR-5; OVCAR-5, time 48 hrs): 9.71 µM | IC50 (KM12; KM12, 48 h): 2.63 µM | TGI (KM12; KM12, time 48 hrs): 7.39 µM | IC50 (RXF 393; RXF 393, 48 h): 1.08 µM | TGI (RXF 393; RXF 393, time 48 hrs): 4.96 µM | IC50 (SK-MEL-28; SK-MEL-28, 48 h): 3.48 µM | TGI (SK-MEL-28; SK-MEL-28, time 48 hrs): 7.51 µM | IC50 (NCI-H322M; 48 h): 4.24 µM | TGI (NCI-H322M; time 48 hrs): 9.32 µM | IC50 (SNB-75; SNB-75, 48 h): 0.74 µM | TGI (SNB-75; SNB-75, time 48 hrs): 4.1 µM | inhibition [1]: 73% | IC50 (PC-3; PC-3, 48 h): 1.79 µM | TGI (PC-3; PC-3, time 48 hrs): 11.2 µM | IC50 (MDA-MB-468; MDA-MB-468, 48 h): 1.61 µM | TGI (MDA-MB-468; MDA-MB-468, time 48 hrs): 6.16 µM | IC50 (HCT-116; HCT-116, 48 h): 1.97 µM | TGI (HCT-116; HCT-116, time 48 hrs): 6.33 µM | IC50 (UACC-257; UACC-257, 48 h): 4.8 µM | TGI (UACC-257; UACC-257, time 48 hrs): 10.1 µM | IC50 (OVCAR-3; OVCAR-3, 48 h): 1.87 µM | TGI (OVCAR-3; OVCAR-3, time 48 hrs): 9.35 µM | IC50 (M14; M14, 48 h): 2.18 µM | TGI (M14; M14, time 48 hrs): 6.98 µM | IC50 (UACC-62; UACC-62, 48 h): 4.41 µM | TGI (UACC-62; UACC-62, time 48 hrs): 8.84 µM | IC50 (WI-38): 13.6 µM | IC50 [2]: 0.474 µM | IC50 (SW-620; SW-620, 48 h): 3.85 µM | TGI (SW-620; SW-620, time 48 hrs): 8.31 µM | IC50 (RPMI-8226; RPMI-8226, 48 h): 0.73 µM | TGI (RPMI-8226; RPMI-8226, time 48 hrs): 6.12 µM | IC50 (MDA-MB-231; MDA-MB-231, 48 h): 2.85 µM | TGI (MDA-MB-231; MDA-MB-231, time 48 hrs): 7.76 µM | IC50 (ACHN; 48 h): 5.24 µM | TGI (ACHN; time 48 hrs): 15.5 µM | IC50 (A549; A549, 48 h): 3.35 µM | TGI (A549; A549, time 48 hrs): 11.2 µM
